Test results: ChEMBL document CHEMBL4831488, “Design, synthesis, docking, molecular dynamics and bioevaluation studies on novel N-methylpicolinamide and thienopyrimidine derivatives with inhibiting NF-κB and TAK1 activities: Cheminformatics tools RDKit applied in drug design” (Eur J Med Chem, 2021)
Active and inactive are the calls of the source. The calls are words filed in the database; no cut-off is given here.

Tests used:
MAP3K7 [1] = assay: Inhibition of human TAK1 in human A549 cells assessed as suppression of TNF-alpha induced TAK1 expression at 0.5 to 5 uM pretreated with compounds for 24 hrs followed by TNF-alpha stimulation for 10 mins by Western blot analysis; settings: dose 0.5-5 µM, time 1450.0 min
A549 [2] = assay: Induction of apoptosis in human A549 cells assessed as early apoptotic cells at 1.2 uM measured by annexinV-FITC/propidium iodide staining based flow cytometry analysis (reference value: 1.17%); type: functional
A549 [3] = assay: Cytotoxicity against human A549 cells assessed as inhibition of cell growth at 20 uM measured after 72 hrs by MTT assay relative to control; type: functional
[4] = target: T1, Nuclear factor NF-kappa-B complex (Homo sapiens) (UniProt Q00653+P19838+Q04206); assay: Inhibition of human NF-kB in human HCT-116 cells assessed as suppression of TNF-alpha induced TAK1 phosphorylation at 0.5 to 5 uM pretreated with compounds for 24 hrs followed by TNF-alpha stimulation for 10 mins by Western blot analysis; type: cell-based; settings: dose 0.5-5 µM, time 1450.0 min
T1 sequence (P19838 whole entry, looked up): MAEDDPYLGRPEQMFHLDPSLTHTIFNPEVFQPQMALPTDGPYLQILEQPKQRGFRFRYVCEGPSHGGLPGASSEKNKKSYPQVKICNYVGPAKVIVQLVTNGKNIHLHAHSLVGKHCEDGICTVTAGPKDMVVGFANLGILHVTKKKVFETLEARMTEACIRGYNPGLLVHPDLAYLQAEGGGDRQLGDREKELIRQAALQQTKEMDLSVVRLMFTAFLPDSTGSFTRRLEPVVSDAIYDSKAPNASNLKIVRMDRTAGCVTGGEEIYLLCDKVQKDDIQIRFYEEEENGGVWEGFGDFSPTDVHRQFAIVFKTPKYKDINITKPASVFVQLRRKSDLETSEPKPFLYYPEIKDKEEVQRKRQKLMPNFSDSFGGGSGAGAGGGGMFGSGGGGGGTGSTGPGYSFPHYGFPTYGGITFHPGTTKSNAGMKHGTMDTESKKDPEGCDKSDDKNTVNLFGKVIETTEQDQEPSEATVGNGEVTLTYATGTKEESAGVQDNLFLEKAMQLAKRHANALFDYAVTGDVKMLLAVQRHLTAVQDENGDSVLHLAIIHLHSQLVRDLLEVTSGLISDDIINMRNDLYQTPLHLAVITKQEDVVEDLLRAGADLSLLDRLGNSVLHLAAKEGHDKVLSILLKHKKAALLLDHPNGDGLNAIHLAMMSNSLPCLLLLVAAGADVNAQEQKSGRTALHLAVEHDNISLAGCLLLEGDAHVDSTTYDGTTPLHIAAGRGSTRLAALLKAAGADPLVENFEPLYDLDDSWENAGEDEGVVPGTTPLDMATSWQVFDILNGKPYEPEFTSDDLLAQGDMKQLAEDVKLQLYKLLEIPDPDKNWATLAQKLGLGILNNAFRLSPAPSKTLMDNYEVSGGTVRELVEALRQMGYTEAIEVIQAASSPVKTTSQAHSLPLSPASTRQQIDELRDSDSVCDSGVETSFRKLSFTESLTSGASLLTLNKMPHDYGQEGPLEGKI
T1 sequence (Q00653 whole entry, looked up): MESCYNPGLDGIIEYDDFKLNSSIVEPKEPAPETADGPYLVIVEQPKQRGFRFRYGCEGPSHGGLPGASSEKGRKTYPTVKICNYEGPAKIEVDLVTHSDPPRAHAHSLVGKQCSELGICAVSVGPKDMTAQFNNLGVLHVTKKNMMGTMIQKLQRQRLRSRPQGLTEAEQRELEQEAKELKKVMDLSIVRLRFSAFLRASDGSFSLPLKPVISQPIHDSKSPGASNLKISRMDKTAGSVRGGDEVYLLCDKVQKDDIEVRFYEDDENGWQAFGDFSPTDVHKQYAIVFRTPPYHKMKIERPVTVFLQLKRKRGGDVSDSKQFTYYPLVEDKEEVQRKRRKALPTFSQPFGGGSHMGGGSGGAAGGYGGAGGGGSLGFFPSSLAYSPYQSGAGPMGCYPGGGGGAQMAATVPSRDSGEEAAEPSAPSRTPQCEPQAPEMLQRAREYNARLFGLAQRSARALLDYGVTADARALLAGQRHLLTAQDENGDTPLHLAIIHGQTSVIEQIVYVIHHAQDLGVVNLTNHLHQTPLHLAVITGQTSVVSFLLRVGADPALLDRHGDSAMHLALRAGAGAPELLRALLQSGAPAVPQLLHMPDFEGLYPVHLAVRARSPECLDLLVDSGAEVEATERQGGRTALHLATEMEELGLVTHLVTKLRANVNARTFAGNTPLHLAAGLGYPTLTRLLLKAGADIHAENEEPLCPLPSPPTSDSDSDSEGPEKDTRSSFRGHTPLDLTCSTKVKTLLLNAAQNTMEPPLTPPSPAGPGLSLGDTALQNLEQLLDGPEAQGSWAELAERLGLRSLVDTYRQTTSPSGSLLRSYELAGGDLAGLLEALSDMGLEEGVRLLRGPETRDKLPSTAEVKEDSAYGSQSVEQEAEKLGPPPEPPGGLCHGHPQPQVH
T1 sequence (Q04206 whole entry, looked up): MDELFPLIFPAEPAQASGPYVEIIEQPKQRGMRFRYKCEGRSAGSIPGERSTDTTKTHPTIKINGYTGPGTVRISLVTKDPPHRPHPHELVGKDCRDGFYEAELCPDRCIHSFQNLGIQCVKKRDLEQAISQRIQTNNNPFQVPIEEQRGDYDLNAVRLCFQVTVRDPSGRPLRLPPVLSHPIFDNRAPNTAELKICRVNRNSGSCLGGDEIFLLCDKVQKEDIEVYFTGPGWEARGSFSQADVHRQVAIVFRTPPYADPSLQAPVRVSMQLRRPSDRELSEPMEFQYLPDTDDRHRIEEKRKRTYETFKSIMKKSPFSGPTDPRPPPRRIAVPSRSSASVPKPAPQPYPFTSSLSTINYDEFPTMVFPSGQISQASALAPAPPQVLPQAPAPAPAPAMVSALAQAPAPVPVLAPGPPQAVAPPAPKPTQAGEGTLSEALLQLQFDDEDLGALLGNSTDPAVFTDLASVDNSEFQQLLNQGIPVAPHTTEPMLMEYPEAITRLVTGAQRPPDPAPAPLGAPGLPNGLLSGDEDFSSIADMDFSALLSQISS

MAP3K7 [5] = assay: Inhibition of human TAK1 in human A549 cells assessed as suppression of TNF-alpha induced TAK1 phosphorylation at 0.5 to 5 uM pretreated with compounds for 24 hrs followed by TNF-alpha stimulation for 10 mins by Western blot analysis; settings: dose 0.5-5 µM, time 1450.0 min
[6] = target: T1, Nuclear factor NF-kappa-B complex (Homo sapiens); assay: Inhibition of human NF-kB in human HCT-116 cells assessed as suppression of TNF-alpha induced p-65 expression at 0.5 to 5 uM pretreated with compounds for 24 hrs followed by TNF-alpha stimulation for 10 mins by Western blot analysis; type: cell-based; settings: dose 0.5-5 µM, time 1450.0 min
A549 [7] = assay: Induction of apoptosis in human A549 cells assessed as late apoptotic cells at 0.6 uM measured by annexinV-FITC/propidium iodide staining based flow cytometry analysis (reference value: 0.64%); type: functional
A549 [8] = assay: Cell cycle arrest in human A549 cells assessed as accumulation at G0/G1 phase at 0.6 uM measured after 24 hrs by PI staining based Flow cytometry method (reference value: 55.54%); type: functional
A549 [9] = assay: Cell cycle arrest in human A549 cells assessed as accumulation at G2/M phase at 0.6 uM measured after 24 hrs by PI staining based Flow cytometry method (reference value: 10.2%); type: functional
A549 [10] = assay: Induction of apoptosis in human A549 cells assessed as late apoptotic cells at 1.2 uM measured by annexinV-FITC/propidium iodide staining based flow cytometry analysis (reference value: 0.64%); type: functional

Q: Which inhibition (MAP3K7 [1]) does the source give for `CNC(=O)c1cc(Oc2ccc(Nc3nccc(N4CCCCC4)n3)cc2)ccn1` here?
A: The inhibition was “Active”.

Q: What about the Activity (A549 [2]) of the same compound?
A: Its Activity is 12.9%.

Q: What about the inhibition at 20 µM (A549 [3]) of the same compound?
A: Its inhibition at 20 µM is 63.4%.

Q: What about the inhibition [4] of the same compound?
A: The inhibition was “Active”.

Q: What about the inhibition (MAP3K7 [5]) of the same compound?
A: The inhibition was “Active”.

Q: And the inhibition [6]?
A: The inhibition was “Active”.

Q: And the Activity (A549 [7])?
A: Its Activity is 3.46%.

Q: What about the Activity (A549 [8]) of the same compound?
A: Its Activity is 60.53%.

Q: What about the Activity (A549 [9]) of the same compound?
A: The Activity was 15.91%.

Q: And the Activity (A549 [10])?
A: Its Activity is 5.7%.
